The supplement of paper PMC11451515

How the values were obtained:
Test in all cases: AUC of viability dose-response curve (% viability x log10 dose units); higher = less sensitive
Conditions in all cases: 48 h
P12-Ichikawa = tested on: P12-Ichikawa
Outline: (§1)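 Library compounds in DMSO were applied for 48 h at 37°C at 11 threefold doses (47 μM to 0.79 nM) to medium-adapted leukemia cells in 1536-well plates holding 500 or 1000 cells/well. Luminescence from CellTiter-Glo One was normalised plate by plate against DMSO and cell-free wells. Area under the curve came from trapezoidal integration of a log-logistic fit, after scaling curves that rose above full viability and discarding those that failed quality control. The fit had four parameters and used log10 doses.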

NOMO1 = tested on: NOMO1
Outline: as §1

SEM cells = tested on: SEM cells
Outline: as §1

[1] = RPMI 5 mM glucose + 10% dialyzed FBS

SMILES	AUC of viability dose-response curve (P12-Ichikawa; HPLM + 10% dialyzed FBS)	AUC of viability dose-response curve (P12-Ichikawa; RPMI 5 mM glucose + 10% FBS)	AUC of viability dose-response curve (P12-Ichikawa; [1])	AUC of viability dose-response curve (NOMO1; HPLM + 10% dialyzed FBS)	AUC of viability dose-response curve (NOMO1; RPMI 5 mM glucose + 10% FBS)	AUC of viability dose-response curve (NOMO1; [1])	AUC of viability dose-response curve (SEM cells; HPLM + 10% dialyzed FBS)	AUC of viability dose-response curve (SEM cells; RPMI 5 mM glucose + 10% FBS)	AUC of viability dose-response curve (SEM cells; [1])
CN(C)[C@H]\1[C@@H]2C[C@H]3C(=C(O)\[C@]2(O)C(=O)\C(=C1O)C(N)=O)/C(=O)C4=C(O)C=CC=C4[C@@]3(C)O	470	467	461	468	443	454	426	441	452
CC(C)NC[C@@H](C(=O)N1CCN(c2ncnc3c2[C@H](C)C[C@H]3O)CC1)c1ccc(Cl)cc1	367	350	362	411	444	419	257	251	249
C[S+]([O-])(=O)C1=CC=C(C=C1)C/2=C(/C(=O)OC2)C3=CC=CC=C3	468	449	472	465	463	445	466	431	453
C=C(C)[C@H]1Cc2c(ccc3c2O[C@@H]2COc4cc(OC)c(OC)cc4[C@@H]2C3=O)O1	376	335	366	389	399	413	370	337	379
CC[C@H](C)[N]1C=C(C)C2=C1C=C(C=C2C(=O)NC\C3=C(C)\C=C(\C)NC3=O)C4=CC=C(N=C4)N5CCNCC5	476	468	474	469	475	467	474	472	463
C=C[C@H]1CN2CC[C@H]1C[C@H]2[C@H](O)c1ccnc2ccc(OC)cc12	458	466	446	464	443	469	472	442	431
C[N]1C=C(C2=C1C=CC=C2)\C3=C(\C(=O)NC3=O)C4=C5CC(CN)CC[N]5C6=C4C=CC=C6 (configuration not stated)	456	440	443	452	443	460	395	399	420
CC/1=C(/N2[C@H](SC1)[C@H](NC(=O)[C@H](N)\C3=C\C\C=C/C3)C2=O)C(O)=O	471	441	440	446	454	461	429	470	448
CC(C)C(=O)Oc1ccc(CO)cc1[C@H](CCN(C(C)C)C(C)C)c1ccccc1	405	398	381				376	402	433
Cc1cc2c(F)c(Oc3ncnn4cc(OC[C@@H](C)O)c(C)c34)ccc2[nH]1	442	454	448	459	453	446	394	372	380
